What was measured:
[1] = tested on: barnyardgrass; test: Test B pre-/postemergence herbicide test; assay type: in vivo, Echinochloa crus-galli; settings: for Barnyardgrass plant response rating (0 to 100 scale) / Plant response rating, Barnyardgrass: 0 = no effect, 100 = complete control, preemergence; for Plant response rating, Barnyardgrass / Barnyardgrass plant response rating: visual rating; for Barnyardgrass plant response rating: postemergence, scale 0 (no effect) to 100 (complete control)
Outline: (§1)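 Flooded paddy rice and barnyardgrass were treated at the 2-leaf stage; upland plantings received compound either on sown seed or on 1- to 4-leaf seedlings. All were kept 13–15 days in a greenhouse and scored visually, 0–100, relative to untreated plants.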

[2] = tested on: rice; test: Test B flooded paddy test; assay type: in vivo, Oryza sativa; settings: 1000 g ai/ha, scale 0 to 100 (0 no effect, 100 complete control)
Outline: (§2)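 Formulated test chemicals went onto postemergence plants measuring 2 to 18 cm, at one to four leaves. For the paddy assay, species had reached two leaves. Scoring took place 13–15 days later by eye, relative to untreated plants, using 0 for no effect up to 100 for full control.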

[3] = tested on: corn; test: Test B pre-/postemergence herbicide test; assay type: in vivo, Zea mays; settings: for Corn plant response rating (0 to 100 scale) / Plant response rating, Corn: 0 = no effect, 100 = complete control, preemergence; for Corn plant response rating: postemergence
Outline: (§3)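 Plants compared with untreated controls 13–15 days post-treatment and given a visual 0–100 injury score. Applications: preemergence to seeds; postemergence at 1- to 4-leaf (2–18 cm); paddy species flooded, 2-leaf stage. Vehicle non-phytotoxic, surfactant included.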

[4] = tested on: cocklebur; test: Test B pre-/postemergence herbicide test; assay type: in vivo, Xanthium strumarium; settings: for Cocklebur plant response rating (0 to 100 scale) / Plant response rating, Cocklebur: 0 = no effect, 100 = complete control, preemergence; for Plant response rating, Cocklebur / Cocklebur plant response rating: visual rating; for Cocklebur plant response rating: postemergence, scale 0 (no effect) to 100 (complete control)
Outline: as §1

[5] = tested on: lambsquarters; test: Test B pre-/postemergence herbicide test; assay type: in vivo, Chenopodium album; settings: for Lambsquarters plant response rating (0 to 100 scale) / Plant response rating, Lambsquarters: 0 = no effect, 100 = complete control, preemergence; for Lambsquarters plant response rating: postemergence
Outline: as §3

[6] = tested on: morningglory; test: Test B pre-/postemergence herbicide test; assay type: in vivo, Ipomoea coccinea; settings: for Morningglory plant response rating (0 to 100 scale) / Plant response rating, Morningglory: 0 = no effect, 100 = complete control, preemergence; for Morningglory plant response rating: postemergence
Outline: as §1

[7] = tested on: velvetleaf; test: Test B pre-/postemergence herbicide test; assay type: in vivo, Abutilon theophrasti; settings: for Velvetleaf plant response rating (0 to 100 scale) / Plant response rating, Velvetleaf: 0 = no effect, 100 = complete control, preemergence; for Velvetleaf plant response rating: postemergence
Outline: as §3

[8] = tested on: pigweed; test: Test B pre-/postemergence herbicide test; assay type: in vivo, Amaranthus retroflexus; settings: for Pigweed plant response rating (0 to 100 scale) / Plant response rating, Pigweed: 0 = no effect, 100 = complete control, preemergence; for Pigweed plant response rating: postemergence
Outline: as §3

[9] = tested on: wheat; test: Test B postemergence herbicide test; assay type: in vivo, Triticum aestivum; set-up: key to Wheat plant response rating: 0 = no effect, 100 = complete control; settings: postemergence
Outline: as §2

[10] = tested on: barnyardgrass; test: Test B flooded paddy test; assay type: in vivo, Echinochloa crus-galli; settings: 1000 g ai/ha, scale 0 to 100 (0 no effect, 100 complete control)
Outline: (§4)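 After treating 2-leaf paddy plants or 2–18 cm postemergence plants (1 to 4 leaves) with formulated chemical, researchers kept them in a greenhouse for 13–15 days. Effects were judged visually versus controls: 0 indicates none, 100 total control.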

[11] = tested on: Surinam grass; test: Test B pre-/postemergence herbicide test; assay type: in vivo, Urochloa decumbens; settings: for Surinam Grass plant response rating (0 to 100 scale) / Plant response rating, Surinam Grass: 0 = no effect, 100 = complete control, preemergence; for Surinam Grass plant response rating: postemergence
Outline: as §3

[12] = tested on: blackgrass; test: Test B postemergence herbicide test; assay type: in vivo, Alopecurus myosuroides; settings: postemergence, visual rating, scale 0 (no effect) to 100 (complete control)
Outline: as §4

[13] = tested on: small flower umbrella sedge; test: Test B flooded paddy test; assay type: in vivo, Cyperus difformis; settings: 1000 g ai/ha, scale 0 to 100 (0 no effect, 100 complete control)
Outline: as §4

[14] = tested on: rice; test: Test B pre-/postemergence herbicide test; assay type: in vivo, Oryza sativa; settings: 0 = no effect, 100 = complete control, preemergence; for Rice plant response rating (0 to 100 scale): 125 g ai/ha; for Plant response rating, Rice: 500 g ai/ha, visual rating
Excerpt: Seeds selected from barnyardgrass (Echinochloa crus-galli (L.) Beauv.), Surinam grass (Urochloa decumbens (Staph) R. D. Webster, previously named Brachiaria decumbens Stapf), cocklebur (Xanthium strumarium L.), corn (Zea mays L.), large crabgrass (Digitaria sanguinalis (L.) Scop.), giant foxtail (Setaria faberi Herim.), lambsquarters (Chenopodium album L.), morningglory (Ipomoea coccinea L.), pigweed (Amaranthus retroflexus L.), rice (Oryza sativa L.) and velvetleaf (Abutilon theophrasti Medik.) were planted and treated preemergence with test chemicals formulated in a non-phytotoxic solvent mixture which included a surfactant.
At the same time, plants selected from these crop and weed species and also blackgrass (Alopecurus myosuroides Huds.), wheat (Triticum aestivum L.) and wild oat (Avena fatua L.) were treated with postemergence applications of test chemicals formulated in the same manner. Plants ranged in height from 2 to 18 cm (1- to 4-leaf stage) for postemergence treatments. Plant species in the flooded paddy test consisted of rice (Oryza sativa L.), small flower umbrella sedge (Cyperus difformis L.), ducksalad (Heteranthera limosa (Sw.) Willd.) and barnyardgrass (Echinochloa crus-galli (L.) Beauv.) grown to the 2-leaf stage for testing. Treated plants and controls were maintained in a greenhouse for 13 to 15 days, after which time all species were compared to controls and visually evaluated. Plant response ratings, summarized in Table B, are based on a scale of 0 to 100 where 0 is no effect and 100 is complete control. A dash (-) response means no test result.

[15] = tested on: ducksalad; test: Test B flooded paddy test; assay type: in vivo, Heteranthera limosa; settings: 1000 g ai/ha, scale 0 to 100 (0 no effect, 100 complete control)
Outline: as §4

[16] = tested on: wild oat; test: Test B postemergence herbicide test; assay type: in vivo, Avena fatua; settings: postemergence
Outline: as §2

[17] = tested on: giant foxtail; test: Test B pre-/postemergence herbicide test; assay type: in vivo, Setaria faberi; settings: for Foxtail, Giant plant response rating (0 to 100 scale) / Plant response rating, Foxtail, Giant: 0 = no effect, 100 = complete control, preemergence; for Foxtail, Giant plant response rating: postemergence
Outline: as §3

[18] = tested on: large crabgrass; test: Test B pre-/postemergence herbicide test; assay type: in vivo, Digitaria sanguinalis; settings: for Crabgrass, Large plant response rating (0 to 100 scale) / Plant response rating, Crabgrass, Large: 0 = no effect, 100 = complete control, preemergence; for Crabgrass, Large plant response rating: postemergence
Outline: as §3

[19] = 125 g ai/ha, visual rating, scale 0 (no effect) to 100 (complete control)
[20] = 500 g ai/ha, visual rating, scale 0 (no effect) to 100 (complete control)
[21] = 500 g ai/ha, scale 0 to 100, 0 is no effect, 100 is complete control

CCc1nn(C(C)(C)C)cc1C(=O)Nc1ccc(F)c(C(=O)N(C)C)c1 [Compound 239]
20: Corn plant response rating [3, 20] | Cocklebur plant response rating ([4]; 500 g ai/ha) | Lambsquarters plant response rating (0 to 100 scale) ([5]; 125 g ai/ha) | Pigweed plant response rating [8, 19] | Crabgrass, Large plant response rating [18, 20]
30: Rice plant response rating [2] | Lambsquarters plant response rating [5, 20] | Surinam Grass plant response rating [11, 20]
100: Plant response rating, Crabgrass, Large ([18]; 500 g ai/ha, visual rating)
10: Morningglory plant response rating [6, 20] | Velvetleaf plant response rating [7, 20]
60: Plant response rating, Barnyardgrass ([1]; 500 g ai/ha)
50: Pigweed plant response rating [8, 20]
70: Plant response rating, Lambsquarters ([5]; 500 g ai/ha, visual rating) | Plant response rating, Pigweed ([8]; 500 g ai/ha, visual rating) | Sedge, Umbrella plant response rating [13]
0: Barnyardgrass plant response rating (0 to 100 scale) ([1]; 125 g ai/ha) | Barnyardgrass plant response rating ([1]; 125 g ai/ha) | Barnyardgrass plant response rating ([1]; 500 g ai/ha) | Corn plant response rating (0 to 100 scale) ([3]; 125 g ai/ha) | Plant response rating, Corn ([3]; 500 g ai/ha, visual rating) | Corn plant response rating [3, 19] | Cocklebur plant response rating (0 to 100 scale) ([4]; 125 g ai/ha) | Plant response rating, Cocklebur ([4]; 500 g ai/ha) | Cocklebur plant response rating ([4]; 125 g ai/ha) | Lambsquarters plant response rating [5, 19] | Morningglory plant response rating (0 to 100 scale) ([6]; 125 g ai/ha) | Plant response rating, Morningglory ([6]; 500 g ai/ha, visual rating) | Morningglory plant response rating [6, 19] | Velvetleaf plant response rating (0 to 100 scale) ([7]; 125 g ai/ha) | Plant response rating, Velvetleaf ([7]; 500 g ai/ha, visual rating) | Velvetleaf plant response rating [7, 19] | Pigweed plant response rating (0 to 100 scale) ([8]; 125 g ai/ha) | Wheat plant response rating [9, 19] | Wheat plant response rating [9, 20] | Barnyardgrass plant response rating [10] | Surinam Grass plant response rating (0 to 100 scale) ([11]; 125 g ai/ha) | Plant response rating, Surinam Grass ([11]; 500 g ai/ha, visual rating) | Surinam Grass plant response rating [11, 19] | Blackgrass plant response rating ([12]; 125 g ai/ha) | Blackgrass plant response rating ([12]; 500 g ai/ha) | Rice plant response rating (0 to 100 scale) [14] | Plant response rating, Rice [14] | Ducksalad plant response rating [15] | Oat, Wild plant response rating [16, 19] | Oat, Wild plant response rating [16, 20] | Foxtail, Giant plant response rating (0 to 100 scale) ([17]; 125 g ai/ha) | Plant response rating, Foxtail, Giant ([17]; 500 g ai/ha, visual rating) | Foxtail, Giant plant response rating [17, 19] | Foxtail, Giant plant response rating [17, 20] | Crabgrass, Large plant response rating (0 to 100 scale) ([18]; 125 g ai/ha) | Crabgrass, Large plant response rating [18, 19]

C#CCNC(=O)c1cncc(NC(=O)c2cc(C(C)(C)C)nn2CC)c1 [Compound 264]
20: Blackgrass plant response rating ([12]; 500 g ai/ha) | Oat, Wild plant response rating [16, 21]
100: Plant response rating, Lambsquarters ([5]; 500 g ai/ha, visual rating) | Plant response rating, Pigweed ([8]; 500 g ai/ha, visual rating)
50: Sedge, Umbrella plant response rating [13] | Plant response rating, Crabgrass, Large ([18]; 500 g ai/ha, visual rating)
90: Ducksalad plant response rating [15]
0: Barnyardgrass plant response rating (0 to 100 scale) ([1]; 125 g ai/ha) | Barnyardgrass plant response rating ([1]; 125 g ai/ha) | Barnyardgrass plant response rating ([1]; 500 g ai/ha) | Rice plant response rating [2] | Corn plant response rating (0 to 100 scale) ([3]; 125 g ai/ha) | Plant response rating, Corn ([3]; 500 g ai/ha, visual rating) | Corn plant response rating [3, 19] | Corn plant response rating [3, 21] | Cocklebur plant response rating (0 to 100 scale) ([4]; 125 g ai/ha) | Plant response rating, Cocklebur ([4]; 500 g ai/ha) | Cocklebur plant response rating ([4]; 125 g ai/ha) | Cocklebur plant response rating ([4]; 500 g ai/ha) | Lambsquarters plant response rating (0 to 100 scale) ([5]; 125 g ai/ha) | Lambsquarters plant response rating [5, 19] | Lambsquarters plant response rating [5, 21] | Morningglory plant response rating (0 to 100 scale) ([6]; 125 g ai/ha) | Plant response rating, Morningglory ([6]; 500 g ai/ha, visual rating) | Morningglory plant response rating [6, 19] | Morningglory plant response rating [6, 21] | Velvetleaf plant response rating (0 to 100 scale) ([7]; 125 g ai/ha) | Velvetleaf plant response rating [7, 19] | Velvetleaf plant response rating [7, 21] | Pigweed plant response rating (0 to 100 scale) ([8]; 125 g ai/ha) | Pigweed plant response rating [8, 19] | Pigweed plant response rating [8, 21] | Wheat plant response rating [9, 19] | Barnyardgrass plant response rating [10] | Surinam Grass plant response rating (0 to 100 scale) ([11]; 125 g ai/ha) | Surinam Grass plant response rating [11, 19] | Surinam Grass plant response rating [11, 21] | Blackgrass plant response rating ([12]; 125 g ai/ha) | Rice plant response rating (0 to 100 scale) [14] | Plant response rating, Rice [14] | Oat, Wild plant response rating [16, 19] | Foxtail, Giant plant response rating (0 to 100 scale) ([17]; 125 g ai/ha) | Foxtail, Giant plant response rating [17, 19] | Foxtail, Giant plant response rating [17, 21] | Crabgrass, Large plant response rating [18, 19] | Crabgrass, Large plant response rating [18, 21]
10: Plant response rating, Barnyardgrass ([1]; 500 g ai/ha) | Plant response rating, Velvetleaf ([7]; 500 g ai/ha, visual rating) | Wheat plant response rating [9, 21] | Plant response rating, Surinam Grass ([11]; 500 g ai/ha, visual rating) | Plant response rating, Foxtail, Giant ([17]; 500 g ai/ha, visual rating) | Crabgrass, Large plant response rating (0 to 100 scale) ([18]; 125 g ai/ha)

Reference: patent publication US20060069132A1, “Azolecarboxamide herbicides” (priority 2004, published 2006)
